Reference: BindingDB's records for doi:10.1016/j.bmc.2008.05.048 (University of Canterbury, 2008)

Target: T1, Calpain-2 catalytic subunit (Ovis aries, UniProt A8IF71)
T1 sequence (A8IF71 whole entry): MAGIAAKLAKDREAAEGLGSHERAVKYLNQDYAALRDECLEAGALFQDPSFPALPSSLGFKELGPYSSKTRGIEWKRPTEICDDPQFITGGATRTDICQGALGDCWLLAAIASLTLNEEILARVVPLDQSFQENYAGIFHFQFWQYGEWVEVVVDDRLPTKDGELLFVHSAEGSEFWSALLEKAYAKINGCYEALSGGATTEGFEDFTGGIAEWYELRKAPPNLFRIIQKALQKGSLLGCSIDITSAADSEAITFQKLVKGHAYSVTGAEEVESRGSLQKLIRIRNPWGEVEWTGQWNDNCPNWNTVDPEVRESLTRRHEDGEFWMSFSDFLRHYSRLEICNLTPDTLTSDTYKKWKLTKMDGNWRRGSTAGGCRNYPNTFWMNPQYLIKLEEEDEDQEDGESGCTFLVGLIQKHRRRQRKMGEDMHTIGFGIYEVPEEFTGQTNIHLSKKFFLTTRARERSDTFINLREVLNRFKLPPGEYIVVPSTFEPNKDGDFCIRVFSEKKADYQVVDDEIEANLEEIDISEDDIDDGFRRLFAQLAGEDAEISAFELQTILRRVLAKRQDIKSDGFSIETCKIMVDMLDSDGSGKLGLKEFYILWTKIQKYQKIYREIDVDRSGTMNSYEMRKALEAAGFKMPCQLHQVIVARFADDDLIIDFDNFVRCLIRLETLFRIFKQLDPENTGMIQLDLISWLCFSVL
Experiment: BODIPY Fluorescent Microplate Assay
Details: pH 7.5; 25 °C
Procedure: Calpain inhibition assays were performed in 96-well black plates. The reaction was initiated by the addition of substrate solution. The progress of the reaction was followed for 10 min in a (BMG) Fluorostar with excitation at 485 nm and emission at 530 nm. The percentage inhibition was determined as […]. The reported IC50 values are the average of triplicate determinations.

IC50 [nM] | Compound
100 | CC(C)C[C@@H](C=O)NC(=O)[C@@H](NC(=O)c1ccc(C=O)o1)C(C)C [(2S)-2-[(5-formylfuran-2-yl)formamido]-3-methyl-N-[(2S)-4-methyl-1-oxopentan-2-yl]butanamide]
100 | CC(C)C[C@@H](C=O)NC(=O)[C@@H](NC(=O)c1cccs1)C(C)C [(2S)-3-methyl-N-[(2S)-4-methyl-1-oxopentan-2-yl]-2-(thiophen-2-ylformamido)butanamide]
100 | CC(C)C[C@@H](C=O)NC(=O)[C@@H](NC(=O)c1cc(C=O)c[nH]1)C(C)C [(2S)-2-[(4-formyl-1H-pyrrol-2-yl)formamido]-3-methyl-N-[(2S)-4-methyl-1-oxopentan-2-yl]butanamide]
